In the supplement of paper PMC10307832:

Experiments:
Assay in all cases: relative viability (nuclei count vs DMSO), 5 days (fraction); higher = more cells survive
[1] = compound: CC(O)(CS(=O)(=O)c1ccc(F)cc1)C(=O)Nc1ccc(C#N)c(C(F)(F)F)c1 [Bicalutamide] + Nc1nc2[nH]cc(CCc3ccc(C(=O)N[C@@H](CCC(=O)O)C(=O)O)cc3)c2c(=O)[nH]1 [Pemetrexed] (partner 0.2 µM)
Method in brief: (§1)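 Five library-drug doses in √10 steps were combined with a fixed anchor-drug dose, or a single drug was given alone, by pin tool to lung cancer cell lines in 1536-well plates the day after seeding. Nuclei were stained and counted after 5 days. Relative viability is the nuclei count in treated wells over that in vehicle wells, taken as the median of duplicate plates.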

[2] = compound: C(C(=O)C(=O)O)Br [Bromopyruvate] + Cc1nc(NC(=O)N2CCC[C@H]2C(N)=O)sc1-c1ccnc(C(C)(C)C(F)(F)F)c1 [Alpelisib] (partner 2 µM)
Method in brief: as §1

Bicalutamide = compound: CC(O)(CS(=O)(=O)c1ccc(F)cc1)C(=O)Nc1ccc(C#N)c(C(F)(F)F)c1 [Bicalutamide]
Method in brief: (§2)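 For viability, nuclei in each treated well were divided by nuclei in vehicle wells and the median across plates was taken. Lung cancer cell lines in 1536-well plates were pinned with five library-drug doses (not always all listed) spaced by √10, cultured 5 days without medium change, and imaged at 4× after Hoechst staining, with plates passing only at control CV below 25% and at least one doubling.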

Bromopyruvate = compound: C(C(=O)C(=O)O)Br [Bromopyruvate]
Method in brief: as §2

Cell Line | relative viability ([1]; first compound 0.08 µM) | relative viability ([1]; first compound 0.253 µM) | relative viability ([1]; first compound 0.8 µM) | relative viability ([1]; first compound 2.53 µM) | relative viability ([2]; first compound 1 µM) | relative viability ([2]; first compound 3.162 µM) | relative viability ([2]; first compound 10 µM) | relative viability ([2]; first compound 31.62 µM) | relative viability ([2]; first compound 100 µM) | relative viability (Bicalutamide; 0.08 µM) | relative viability (Bicalutamide; 0.253 µM) | relative viability (Bicalutamide; 0.8 µM) | relative viability (Bicalutamide; 2.53 µM) | relative viability (Bromopyruvate; 1 µM) | relative viability (Bromopyruvate; 3.162 µM) | relative viability (Bromopyruvate; 10 µM) | relative viability (Bromopyruvate; 31.62 µM) | relative viability (Bromopyruvate; 100 µM)
LU99A | 0.19 | 0.163 | 0.206 | 0.183 | 0.516 | 0.491 | 0.512 | 0.561 | 0.483 | 0.926 | 0.885 | 1.22 | 0.755 | 0.852 | 0.913 | 0.977 | 0.967 | 1.03
LXF-289 | 0.929 | 0.815 | 0.916 | 0.949 | 1.07 | 1.03 | 1.04 | 1.03 | 1.08 | 0.998 | 0.958 | 0.984 | 0.979 | 1.03 | 1.01 | 1.04 | 1.03 | 1.02
NCI-H23 | 0.52 | 0.528 | 0.854 | 0.578 | 0.607 | 0.669 | 0.68 | 0.46 | 0.43 | 1.02 | 0.9 | 1.08 | 0.812 | 1.01 | 1.19 | 0.979 | 0.909 | 0.931
NCI-H322M | 0.594 | 0.553 | 0.635 | 0.709 | 0.804 | 0.73 | 0.843 | 0.779 | 0.798 | 0.969 | 0.941 | 1.05 | 1.06 | 0.93 | 0.956 | 0.865 | 0.94 | 1.04
NCI-H358 | 0.174 | 0.17 | 0.218 | 0.176 | 0.812 | 1.08 | 0.819 | 0.69 | 0.721 | 0.988 | 0.865 | 1.13 | 1.06 | 1.03 | 1.02 | 0.939 | 0.909 | 0.929
NCI-H441 | 0.311 | 0.281 | 0.284 | 0.272 | 0.835 | 1.01 | 0.714 | 0.658 | 0.547 | 1.13 | 0.803 | 1.45 | 0.976 | 0.949 | 1.18 | 1.17 | 0.914 | 0.679
NCI-H460 | 0.0574 | 0.0589 | 0.0592 | 0.0687 | 0.432 | 0.603 | 0.594 | 0.374 | 0.436 | 0.974 | 0.952 | 1.07 | 0.988 | 0.99 | 0.972 | 1.13 | 1 | 1.01
NCI-H520 | 0.846 | 0.635 | 0.81 | 0.635 | 0.844 | 1.08 | 0.884 | 0.896 | 0.875 | 0.948 | 0.952 | 1.17 | 0.906 | 0.926 | 1.17 | 0.989 | 1.07 | 0.855
NCI-H596 | 0.489 | 0.459 | 0.56 | 0.552 | 0.435 | 0.47 | 0.551 | 0.477 | 0.491 | 0.956 | 0.953 | 1.07 | 1.12 | 1.09 | 0.982 | 1.03 | 0.862 | 1.12
NCI-H647 | 0.187 | 0.172 | 0.172 | 0.151 | 1.12 | 1.15 | 1.46 | 1.48 | 1.2 | 0.987 | 0.886 | 1.37 | 0.893 | 1 | 1.08 | 1.17 | 1.03 | 0.951
NCI-H650 | 0.88 | 0.932 | 0.994 | 0.992 | 1.03 | 1.2 | 1.28 | 1.07 | 1.02 | 1.08 | 1.03 | 1.11 | 0.837 | 0.944 | 1 | 0.98 | 0.887 | 0.895
NCI-H661 | 0.939 | 0.965 | 0.942 | 0.896 | 0.693 | 0.628 | 0.601 | 0.588 | 0.657 | 0.987 | 0.998 | 1.04 | 1.01 | 1.02 | 0.992 | 1.02 | 1.01 | 0.972
NCI-H838 | 0.272 | 0.232 | 0.261 | 0.243 | 1.01 | 0.983 | 1.01 | 0.981 | 1.13 | 0.95 | 0.908 | 1.05 | 0.76 | 0.994 | 0.972 | 1.05 | 0.995 | 0.894
NCI-H1355 | 1.04 | 0.992 | 1.1 | 0.999 | 0.833 | 0.961 | 0.774 | 0.872 | 0.903 | 1.03 | 0.918 | 1.09 | 0.946 | 1.01 | 1.03 | 1.08 | 0.959 | 0.953
NCI-H1395 | 0.89 | 0.766 | 0.965 | 0.709 | 1.02 | 1.46 | 1.26 | 1.06 | 0.991 | 1.05 | 0.9 | 1.03 | 0.82 | 1.07 | 0.896 | 0.955 | 0.787 | 1.1
NCI-H1437 | 0.312 | 0.303 | 0.349 | 0.316 | 0.967 | 1.06 | 1.21 | 0.911 | 0.989 | 0.997 | 0.966 | 1.07 | 0.984 | 1.05 | 0.961 | 1.04 | 0.972 | 1
NCI-H1563 | 0.871 | 0.69 | 0.919 | 0.697 | 0.984 | 1.02 | 0.825 | 0.978 | 0.809 | 0.965 | 0.978 | 1.01 | 0.852 | 0.952 | 0.97 | 0.973 | 0.926 | 0.987
